Tests used:
BRAF G466V = biological target: T1, BRAF G466V (Homo sapiens, UniProt P15056, G466V); experiment: Cellular assay of target protein degradation, T-Rex 293 cells stably transfected with HA-BRAF G466V (HA immunofluorescence, high content imaging); format: cell-based; details: T-Rex 293 HA-BRAF G466V; for DC50: half maximal degradation, read-out: BRaf G466V DC50; for Dmax: maximum degradation observed
T1 construct: expressed in transfected cells
Outline: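 HA-BRAF G466V levels were read by HA immunofluorescence and high-content imaging after 24 h compound exposure (final 30 nM–3 pM, 0.1% DMSO, 37 °C). Expression was induced with 0.75 ng/mL doxycycline. Outputs: half-maximal degradation concentration (DC50) and maximal degradation (Dmax) relative to control.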

BRAF V600E = biological target: T2, BRAF V600E (Homo sapiens, UniProt P15056, V600E); experiment: Cellular assay of target protein degradation, T-Rex 293 cells stably transfected with HA-BRAF_V600E (HA immunofluorescence, high content imaging); format: cell-based; details: T-Rex 293 HA-BRAF V600E; for DC50: half maximal degradation, read-out: BRaf V600E DC50; for Dmax: maximum degradation observed
T2 construct: expressed in transfected cells
T2 sequence (P15056 whole entry V600E): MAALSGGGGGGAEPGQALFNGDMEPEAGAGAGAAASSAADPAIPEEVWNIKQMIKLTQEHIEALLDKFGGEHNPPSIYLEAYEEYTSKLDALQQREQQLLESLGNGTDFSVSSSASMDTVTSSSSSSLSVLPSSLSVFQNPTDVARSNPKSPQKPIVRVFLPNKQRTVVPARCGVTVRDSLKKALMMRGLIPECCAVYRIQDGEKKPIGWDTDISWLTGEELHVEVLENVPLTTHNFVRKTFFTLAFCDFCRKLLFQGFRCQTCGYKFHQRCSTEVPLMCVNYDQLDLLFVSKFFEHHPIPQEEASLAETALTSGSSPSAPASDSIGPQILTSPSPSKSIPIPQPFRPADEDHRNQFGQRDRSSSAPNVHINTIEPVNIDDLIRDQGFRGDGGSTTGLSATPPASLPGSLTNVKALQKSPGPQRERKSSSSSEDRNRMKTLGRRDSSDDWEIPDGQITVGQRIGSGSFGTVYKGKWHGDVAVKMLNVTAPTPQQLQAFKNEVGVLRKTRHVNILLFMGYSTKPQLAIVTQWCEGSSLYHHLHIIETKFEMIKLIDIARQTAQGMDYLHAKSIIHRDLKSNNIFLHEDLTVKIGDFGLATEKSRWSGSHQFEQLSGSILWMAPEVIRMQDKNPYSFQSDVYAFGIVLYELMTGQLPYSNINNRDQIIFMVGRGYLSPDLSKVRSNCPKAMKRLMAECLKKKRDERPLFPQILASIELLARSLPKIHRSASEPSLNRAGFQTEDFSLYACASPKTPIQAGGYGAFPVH
Outline: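 HA immunofluorescence on fixed cells, imaged by high-content reader, measured loss of HA-BRAF V600E in stably transfected T-Rex 293 cells induced with 1 ng/mL doxycycline. Compounds were applied for 24 h at 37 °C (final 0.1 nM–1 μM, 0.1% DMSO); DC50 and Dmax (% of control) were reported.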

T1 sequence (P15056 whole entry G466V): as the sequence (P15056 whole entry V600E) above, with G466V, E600V counted along it

SMILES	DC50 (BRAF G466V) [nM]	Dmax (BRAF G466V) [%]	DC50 (BRAF V600E) [nM]	Dmax (BRAF V600E) [%]
O=C1CCC(N2Cc3cc(N4CCC(N5CCN(CC6CN(c7ccc(-c8cnc9[nH]cc(C(=O)c%10c(F)ccc(NS(=O)(=O)N%11CC[C@@H](F)C%11)c%10F)c9c8)cc7)C6)CC5)CC4)ccc3C2=O)C(=O)N1 (stereo partly drawn) [Compound 144, (3R)-N-{3-[5-(4-{3-[(4-{1-[2-(2,6-dioxopiperidin-3-yl)-1-oxo-2,3-dihydro-1H-isoindol-5-yl]piperidin-4-yl}piperazin-1-yl)methyl]azetidin-1-yl}phenyl)-1H-pyrrolo[2,3-b]pyridine-3-carbonyl]-2,4-difluorophenyl}-3-fluoropyrrolidine-1-sulfonamide]	1 to 10	> 70	< 5	35 to 70
O=C1CC[C@H](NC(=O)c2ccc(N3CC4(CN(CCc5ccc(-c6cnc7[nH]cc(C(=O)c8c(F)ccc(NS(=O)(=O)N9CC[C@@H](F)C9)c8F)c7c6)cc5)C4)C3)cc2F)C(=O)N1 [Compound 373, 4-[6-(2-[4-[3-(2,6-difluoro-3-[[(3R)-3-fluoropyrrolidin-1-ylsulfonyl]amino]benzoyl)-1H-pyrrolo[2,3-b]pyridin-5-yl]phenyl]ethyl)-2,6-diazaspiro[3.3]heptan-2-yl]-N-[(3S)-2,6-dioxopiperidin-3-yl]-2-fluorobenzamide]	1 to 10	> 70	5 to 50	35 to 70
COc1cc([C@@H](O)CCN2CCN(c3ccc(-c4cnc5[nH]cc(C(=O)c6c(F)ccc(NS(=O)(=O)N7CC[C@@H](F)C7)c6F)c5c4)cc3)CC2)cc2c1C(=O)N([C@H]1CCC(=O)NC1=O)C2 (stereo in doubt) [Compound 295, (3R)-N-{3-[5-(4-{4-[(3S)-3-{2-[(3S)-2,6-dioxopiperidin-3-yl]-7-methoxy-1-oxo-2,3-dihydro-1H-isoindol-5-yl}-3-hydroxypropyl]piperazin-1-yl}phenyl)-1-pyrrolo[2,3-b]pyridine-3-carbonyl]-2,4-difluorophenyl}-3-fluoropyrrolidine-1-sulfonamide]	1 to 10	35 to 70	50 to 500	35 to 70
O=C1CC[C@@H](N2Cc3cc(N4CCC(OC5CCN(c6ccc(-c7cnc8[nH]cc(C(=O)c9c(F)ccc(NS(=O)(=O)N%10CC[C@@H](F)C%10)c9F)c8c7)cc6)CC5)CC4)ccc3C2=O)C(=O)N1 [Compound 35, (3R)-N-{3-[5-(4-{4-[(1-{2-[(3R)-2,6-dioxopiperidin-3-yl]-1-oxo-2,3-dihydro-1H-isoindol-5-yl}piperidin-4-yl)oxy]piperidin-1-yl}phenyl)-1H-pyrrolo [2,3-b]pyridine-3-carbonyl]-2,4-difluorophenyl}-3-fluoropyrrolidine-1-sulfonamide]	1 to 10	> 70	5 to 50	35 to 70
O=C1CC[C@H](N2Cc3cc(N4CC5(CN(CC6CCN(c7ccc(-c8cnc9[nH]cc(C(=O)c%10c(F)ccc(NS(=O)(=O)N%11CC[C@@H](F)C%11)c%10F)c9c8)cc7)CC6)C5)C4)ccc3C2=O)C(=O)N1 [Compound 221, (3R)-N-{3-[5-(4-{4-[(6-{2-[(3S)-2,6-dioxopiperidin-3-yl]-1-oxo-2,3-dihydro-1H-isoindol-5-yl}-2,6-diazaspiro[3.3]heptan-2-yl)methyl]piperidin-1-yl}phenyl)-1H-pyrrolo[2,3-b]pyridine-3-carbonyl]-2,4-difluorophenyl}-3-fluoropyrrolidine-1-sulfonamide]	1 to 10	> 70	5 to 50	35 to 70
O=C1CC[C@H](N2Cc3cc(N4CC(CN5C[C@@H]6CN(c7ccc(-c8cnc9[nH]cc(C(=O)c%10c(F)ccc(NS(=O)(=O)N%11CC[C@@H](F)C%11)c%10F)c9c8)cc7)C[C@@H]6C5)C4)ccc3C2=O)C(=O)N1 [Compound 85, (3R)-N-[3-(5-{4-[(3aR,6aS)-5-[(1-{2-[(3S)-2,6-dioxopiperidin-3-yl]-1-oxo-2,3-dihydro-1H-isoindol-5-yl}azetidin-3-yl)methyl]-octahydropyrrolo[3,4-c]pyrrol-2-yl]phenyl}-1H-pyrrolo[2,3-b]pyridine-3-carbonyl)-2,4-difluorophenyl]-3-fluoropyrrolidine-1-sulfonamide]	1 to 10	> 70	< 5	35 to 70
CCCS(=O)(=O)Nc1ccc(F)c(C(=O)c2c[nH]c3ncc(-c4ccc(N5CCC(CN6CCC(c7ccc8c(c7)CN([C@@H]7CCC(=O)NC7=O)C8=O)CC6)CC5)cc4)cc23)c1F [Compound 235, N-{3-[5-(4-{4-[(4-{2-[(3R)-2,6-dioxopiperidin-3-yl]-1-oxo-2,3-dihydro-1H-isoindol-5-yl}piperidin-1-yl)methyl]piperidin-1-yl}phenyl)-1H-pyrrolo[2,3-b]pyridine-3-carbonyl]-2,4-difluorophenyl}propane-1-sulfonamide]	1 to 10	> 70	5 to 50	35 to 70
O=C1CC[C@@H](N2Cc3cc(C4CN(CC5CC6(C5)CN(c5ccc(-c7cnc8[nH]cc(C(=O)c9c(F)ccc(NS(=O)(=O)N%10CC[C@@H](F)C%10)c9F)c8c7)cc5)C6)C4)ccc3C2=O)C(=O)N1 [Compound 100, (3R)-N-{3-[5-(4-{6-[(3-{2-[(3R)-2,6-dioxopiperidin-3-yl]-1-oxo-2,3-dihydro-1H-isoindol-5-yl}azetidin-1-yl)methyl]-2-azaspiro[3.3]heptan-2-yl}phenyl)-1H-pyrrolo[2,3-b]pyridine-3-carbonyl]-2,4-difluorophenyl}-3-fluoropyrrolidine-1-sulfonamide]	1 to 10	> 70	5 to 50	35 to 70
O=C1CC[C@H](N2Cc3cc(C[C@H](O)CN4CC5(C4)CN(c4ccc(-c6cnc7[nH]cc(C(=O)c8c(F)ccc(NS(=O)(=O)N9CC[C@@H](F)C9)c8F)c7c6)cc4)C5)ccc3C2=O)C(=O)N1 [Compound 170, (3R)-N-{3-[5-(4-{6-[(2S)-3-{2-[(3S)-2,6-dioxopiperidin-3-yl]-1-oxo-2,3-dihydro-1H-isoindol-5-yl}-2-hydroxypropyl]-2,6-diazaspiro[3.3]heptan-2-yl}phenyl)-1H-pyrrolo[2,3-b]pyridine-3-carbonyl]-2,4-difluorophenyl}-3-fluoropyrrolidine-1-sulfonamide]	1 to 10	> 70	50 to 500	35 to 70
O=C1CC[C@@H](N2Cc3cc(N4CC5(CN(CC6CCN(c7ccc(-c8cnc9[nH]cc(C(=O)c%10c(F)ccc(NS(=O)(=O)N%11CC[C@@H](F)C%11)c%10F)c9c8)cc7)CC6)C5)C4)ccc3C2=O)C(=O)N1 [Compound 222, (3R)-N-{3-[5-(4-{4-[(6-{2-[(3R)-2,6-dioxopiperidin-3-yl]-1-oxo-2,3-dihydro-1H-isoindol-5-yl}-2,6-diazaspiro[3.3]heptan-2-yl)methyl]piperidin-1-yl}phenyl)-1H-pyrrolo[2,3-b]pyridine-3-carbonyl]-2,4-difluorophenyl}-3-fluoropyrrolidine-1-sulfonamide]	1 to 10	> 70	5 to 50	35 to 70
COc1cc(C2CCN(CC3CCN(c4ncc(-c5cnc6[nH]cc(C(=O)c7c(F)ccc(NS(=O)(=O)N8CC[C@@H](F)C8)c7F)c6c5)cn4)CC3)CC2)cc2c1C(=O)N(C1CCC(=O)NC1=O)C2 (stereo partly drawn) [Compound 175, (3R)-N-[3-(5-{2-[4-({4-[2-(2,6-dioxopiperidin-3-yl)-7-methoxy-1-oxo-2,3-dihydro-1H-isoindol-5-yl]piperidin-1-yl}methyl)piperidin-1-yl]pyrimidin-5-yl}-1H-pyrrolo[2,3-b]pyridine-3-carbonyl)-2,4-difluorophenyl]-3-fluoropyrrolidine-1-sulfonamide]	< 1	> 70	5 to 50	35 to 70
COc1ccc(NS(=O)(=O)N2CC[C@@H](F)C2)c(F)c1C(=O)c1c[nH]c2ncc(-c3ccc(N4CCC(CN5CCC(c6ccc7c(c6)CN([C@H]6CCC(=O)NC6=O)C7=O)CC5)CC4)cc3)cc12 [Compound 212, (3R)—N-{3-[5-(4-{4-[(4-{2-[(3S)-2,6-dioxopiperidin-3-yl]-1-oxo-2,3-dihydro-1H-isoindol-5-yl}piperidin-1-yl)methyl]piperidin-1-yl}phenyl)-1H-pyrrolo[2,3-b]pyridine-3-carbonyl]-2-fluoro-4-methoxyphenyl}-3-fluoropyrrolidine-1-sulfonamide]	1 to 10	> 70	5 to 50	35 to 70
C[C@@H]1C[C@H](CN2CCC(c3ccc4c(c3)CN([C@@H]3CCC(=O)NC3=O)C4=O)CC2)CCN1c1ccc(-c2cnc3[nH]cc(C(=O)c4c(F)ccc(NS(=O)(=O)N5CC[C@@H](F)C5)c4F)c3c2)cc1 [Compound 242, (3R)-N-[3-(5-{4-[(2R,4R)-4-[(4-{2-[(3R)-2,6-dioxopiperidin-3-yl]-1-oxo-2,3-dihydro-1H-isoindol-5-yl}piperidin-1-yl)methyl]-2-methylpiperidin-1-yl]phenyl}-1H-pyrrolo[2,3-b]pyridine-3-carbonyl)-2,4-difluorophenyl]-3-fluoropyrrolidine-1-sulfonamide]	1 to 10	> 70	5 to 50	35 to 70
